Converted amounts (≈) assume the structure as drawn.
Settings: buffer; pH 7.4; 200.0 µM

Structure (SMILES) | solubility kinetic [µg/mL]
CC(Nc1ccc2c(c1)OCCO2)C(=O)Nc1ccc2c(c1)OCO2 (stereo not drawn) | > 51.4
C1CCCCCC(NCCN2CCNCC2)CCCCC1 | > 44.3
COc1cccc(NC(=O)CN2CCSc3ccccc32)c1 | 25.5 (≈ 81.1 µM)
CSCC(=O)NC1CCCN(C2Cc3ccccc3C2)C1 (stereo not drawn) | 44.1 (≈ 145 µM)
NS(=O)(=O)c1ccc(NC(=O)CN2CCCc3ccccc32)cc1 | 19.1 (≈ 55.3 µM)
NC(=O)C1CCN(C(=O)/C=C/c2ccccc2[N+](=O)[O-])CC1 | > 45.5
COc1ccc(OCCNS(=O)(=O)c2cccc([N+](=O)[O-])c2)cc1 | 16.4 (≈ 46.5 µM)
Oc1ccc(C=NCCc2ccccc2)cc1 | > 33.8
CCc1nnc(NC(=O)CCC(=O)NC2CC2)s1 | > 40.2
CN1CCN(S(=O)(=O)c2ccc(NC(=O)c3cccc(F)c3)cc2)CC1 | > 56.6
O=C(COC(=O)c1ccccn1)Nc1ccc2c(c1)OCCO2 | 44.4 (≈ 141 µM)
O=C(Nc1ccc2ccccc2c1)c1ccc(Cl)cc1 | < 0.6
CCC1CCCCN1C(=O)COC(=O)COc1ccc(Br)cc1 (stereo not drawn) | > 57.6
CCCCC(=O)Nc1ccc(C(=O)NCCN2CCOCC2)cc1 | > 50
Cc1ccccc1OCC(=O)OCC(=O)Nc1ccc2c(c1)OCO2 | 14.9 (≈ 43.4 µM)
CC(=O)C1=C(C)OC(N)=C(C#N)C1c1cc([N+](=O)[O-])ccc1Cl (stereo not drawn) | 41.9 (≈ 126 µM)
CCc1nc(Nc2cccc(O)c2)c2oc3ccccc3c2n1.Cl | 0.5
CCCCn1c(N)c(N(CCC(C)C)C(=O)COC(=O)/C=C/c2ccc(F)cc2)c(=O)[nH]c1=O | 8.5 (≈ 17.9 µM)
C=C(C)CCOC(=O)C(CC(=O)O)NCc1ccco1 (stereo not drawn) | > 42.2
CC1SCC(NC(=O)c2ccc(Cl)cc2)CS1 (stereo not drawn) | 39.2 (≈ 136 µM)
Cc1cc(C)cc(NC(=O)COC(=O)CC2CCCC2)c1 | 21.1 (≈ 72.9 µM)
O=C(CNC(=O)c1ccco1)OCc1ccccc1Cl | > 44.1
O=C(Cc1ccc([N+](=O)[O-])cc1)NCC1CCCO1 (stereo not drawn) | > 39.6
COc1ccc(CN(C)C(C)C(=O)Nc2cccc3ccccc23)cc1 (stereo not drawn) | 7.8 (≈ 22.4 µM)
CC1CCN(C(=S)NC(=O)c2ccc(C(C)(C)C)cc2)CC1 | 3.1 (≈ 9.73 µM)
Nc1cc(N)cc(C(=O)Nc2ccc3c(c2)C(=O)NC3=O)c1 | > 44.4
N#C/C(=C\c1cccnc1)c1ccccc1[N+](=O)[O-] | 8 (≈ 31.8 µM)
Cc1cccc(C(=O)OCC(=O)Nc2ccc3c(c2)OCCO3)c1 | 8.2 (≈ 25.1 µM)

More lines, now with the values ahead:

solubility kinetic [µg/mL] | Structure (SMILES)
25.8 (≈ 91.1 µM) | COc1ccc(-c2nc(-c3cccnc3)no2)cc1OC
< 0.5 | CCc1sc(-c2ccccc2)nc1C(=O)OC
> 50.5 | COc1ccc(C2C(C)C3(O)CC(C#N)(C(=O)N3)C2(C#N)C#N)cc1 (stereo not drawn)
> 46 | CC(Sc1nnc(-c2ccccc2F)n1C1CC1)C(N)=O (stereo not drawn)
> 47.1 | Cn1cnnc1SCC(=O)Nc1ccc(OC(F)F)cc1
> 45.1 | CCOc1ncccc1C(=O)NCCc1ccc(OC)cc1
20 (≈ 73.2 µM) | Cc1cc(C(=O)OCC(=O)Nc2ccccc2)c(C)o1
2.1 (≈ 6.12 µM) | CCOC(=O)Cc1cc(=O)[nH]c(/N=C(\N)Nc2ccc(C)c(C)c2)n1
> 48.4 | O=C(NCCCO)C(=O)c1c(-c2ccccc2)cc2ccccn12
31.6 (≈ 112 µM) | Cc1cccc(NS(=O)(=O)c2ccc(Cl)cc2)n1
14.6 (≈ 104 µM) | C[Si](C)(C)n1ccnc1
> 45.3 | CCc1noc(C)c1C(=O)OCC(=O)NCc1ccccc1
> 33.8 | NC(=O)c1ccccc1N=Cc1cccnc1
> 59.7 | O=C1CN(S(=O)(=O)c2cc(Br)ccc2Br)CCN1
27.8 (≈ 89.6 µM) | Cc1cccc(C)c1N1C(=O)CN(Cc2ccccc2)C1=S
> 44 | CCn1c(SCC(=O)O)nnc1-c1ccccc1OC
< 0.4 | Cc1cccc(C(=O)Nc2ccc3c(c2)C(=O)N(CC(C)C)C3=O)c1
15.5 (≈ 104 µM) | Cn1cccc2[nH]c(=O)nc1-2
> 47.2 | CCc1nc2ccccc2n1CC(O)COCC1CC=CCC1 (stereo not drawn)
< 0.4 | CCOC(=O)c1sc(NC(=O)CC(C)c2ccccc2)nc1C (stereo not drawn)

— PubChem BioAssay AID1996
